{
  "source": "patent US11149022B2",
  "about": "“Antagonists of the muscarinic acetylcholine receptor M4” (Vanderbilt University, priority 2017, dated 2021)",
  "key": {"[1]": {"test_system": "haloperidol-induced catalepsy", "assay": "haloperidol-induced catalepsy, a model of parkinsonian motor disability", "assay_type": "in vivo, mice", "description": "Furthermore, haloperidol-induced catalepsy, a model of parkinsonian motor disability, is reduced in M4 knockout mice as compared to wild-type controls. […] The reversal by scopolamine was uncommonly robust and more pronounced than we observe with agents targeting a number of other targets being evaluated for potential antiparkinsonian effects, including metabotropic glutamate (mGlu) receptors mGlu4 or mGlu5, A2A adenosine receptors, and NMDA receptors. […] Taken together with the extensive studies of M4 modulation of basal ganglia and motor function, these studies provide compelling evidence that M4 is the dominant mAChR subtype involved in the antiparkinsonian effects of non-selective mAChR antagonists and provide support for discovery and development of selective M4 antagonists for treatment of neurodegenerative disease such as PD, dystonia, tardive dyskinesia and other movement disorders."}, "locomotor activity": {"test_system": "locomotor activity", "settings": "M4 knockout mice, but not the other four mAChR subtypes (M1-3,5); cited from earlier work"}},
  "data": [
    {"smiles": "CN1[C@@H]2C[C@@H](OC(=O)[C@H](CO)c3ccccc3)C[C@H]1[C@@H]1O[C@@H]12", "note": "[scopolamine]", "values": [
      {"measurement": "reduction of catalepsy induced by haloperidol", "setting": "[1]; M4 KO mice", "value": "ineffective"},
      {"measurement": "reversal of catalepsy induced by haloperidol", "setting": "[1]; WT mice", "value": "completely reversed"},
      {"measurement": "locomotor-activating effects", "setting": "locomotor activity", "value": "dramatically reduced"}
    ]}
  ]
}
